# Measurements: patent US20160331717A1, “CABAZITAXEL AND ITS USE FOR TREATING CANCER” (AVENTIS PHARMA S.A., priority 2015, published 2016)
# Like-named read-outs stand apart in the source and are kept apart here.
# Experiments:
# [1] = POH0124; CV=38.8%, n=170; cited from earlier work
# [2] = test system: advanced solid tumor patients with varying degrees of hepatic impairment; settings: for maximum tolerated dose (MTD): 1-hour IV infusion every 3 weeks; for death related to study drug: one patient
# Protocol: • The primary endpoint was the occurrence of DLTs during Cycle 1. • The secondary endpoints were: • Treatment-emergent adverse events (TEAEs); • Laboratory abnormalities; and, • Pharmacokinetic parameters (Cmax, Ceoi, tmax, tlast, AUClast, AUCO-24, AUCO-72, t1/2z, AUC, CL and Vss). • The effect of the degree of hepatic impairment on cabazitaxel PK parameters was evaluated according to a linear mixed effects model (Log [parameter]=Cohort+Error) with a fixed term for Cohort, fit by estimated generalized least squares (GLS) using SAS PROC MIXED. Estimate and 90% confidence interval (CI) for the geometric mean ratio of each cohort versus Cohort 1 and of Cohorts 3 and 4 versus Cohort 2 were provided for CL, CL/BSA, and exposure parameters (Cmax, AUC, AUClast, AUCO-24 and AUCO-72) normalized to actual cabazitaxel dose in mg/m^2.
# • The study was designed as an open-label, dose-escalation, multi-center study of cabazitaxel administered as a 1-hour intravenous (IV) infusion every 3 weeks in cancer patients with varying degrees of hepatic impairment. Patients were enrolled in 4 cohorts based on hepatic function at baseline graded by total bilirubin and aspartate aminotransferase (AST): • Cohort 1: normal hepatic function (total bilirubin supper limit of normal [ULN]; aspartate aminotransferase [AST]≦ULN), • Cohort 2: mild hepatic impairment (total bilirubin >1 to ≦1.5×ULN or AST>1.5×ULN), • Cohort 3: moderate hepatic impairment (total bilirubin >1.5× to ≦3.0×ULN; AST=any), • Cohort 4: severe hepatic impairment (total bilirubin >3.0×-10×ULN; AST=any). • All liver function tests must be completed within 48 hours prior to start of treatment, and reviewed by the investigator or their designee before treatment administration.
# Cabazitaxel is administered on Day 1 of each 3-week cycle. Patients received cabazitaxel administered by IV infusion over 1 hour at the dose specified for each cohort. The actual amount of cabazitaxel administered was adjusted at each cycle based on body surface area (BSA) to a maximum BSA of 2.1 m^2 (i.e., patients with a BSA over 2.1 m2 will receive the same amount of cabazitaxel as those with a BSA of 2.1 m).
# For Cohorts 2, 3 and 4, dose-escalation was based on dose-limiting toxicities (DLTs) during Cycle 1; real time PK information was used along with safety information. The maximum administered dose (MAD) was to be reached at the dose level when at least 2 patients develop a DLT during Cycle 1. The MTD was defined as the highest dose at which no more than 0 of the first 3 patients, or 1 of 6 patients, experience a DLT during Cycle 1, to a maximum dose of 25 mg/m2. The MTD was one dose level below the MAD.
# To be considered a DLT, the clinical adverse event (AE) or laboratory abnormality should be drug-related as assessed by the investigator.
# Liver DLTs in patients with hepatic dysfunction (Cohorts 2, 3 and 4) were defined as an increase in total and direct bilirubin and/or transaminase levels to 3 times the baseline value.
# [3] = Pharmacokinetics of cabazitaxel in POP6792 (plasma, LC-MS/MS, Cycle 1); type: in vivo, human
# Protocol: Total cabazitaxel concentrations in plasma were determined using a validated liquid chromatography with tandem mass spectrometry method (LC-MS/MS) with a lower limit of quantification (LLOQ) of 1 ng/mL.
# [4] = Cohort 2, mild hepatic impairment
# [5] = Cohort 3 at the MTD, 4/7 patients
compound,measurement,setting,value
"CO[C@H]1C(=O)[C@]2(C)[C@@H](OC)C[C@H]3OC[C@@]3(OC(C)=O)[C@H]2[C@H](OC(=O)c2ccccc2)[C@]2(O)C[C@H](OC(=O)[C@H](O)[C@@H](NC(=O)OC(C)(C)C)c3ccccc3)C(C)=C1C2(C)C [cabazitaxel, 4α-acetoxy-2α-benzoyloxy-5β,20-epoxy-1-hydroxy-7, 101-dimethoxy-9-oxo-11-taxen-13α-yl (2R,3S)-3-tert-butoxycarbonyl-amino-2-hydroxy-3-phenylpropionate]",typical cabazitaxel clearance (CL/BSA) by population PK analysis,[1],26.4 L/h/m2
same,maximum administered dose (MAD),[2]; [4],25 mg/m2
same,maximum tolerated dose (MTD),[2]; [4],20 mg/m^2
same,death related to study drug,[2]; Cohort 2/20 mg/m^2,died due to Gr 4 Candida sepsis related to study drug
same,maximum tolerated dose (MTD),"[2]; Cohort 3, moderate hepatic impairment",15 mg/m^2
same,"study drug-related febrile neutropenia, patients","[2]; Cohort 3 at the MTD, 1/7 patients",14.3%
same,"study drug-related TEAE diarrhea, patients","[2]; Cohort 3 at the MTD, 3/7 patients",42.9%
same,"Gr≧3 on-treatment neutrophil count decreased, patients",[2]; [5],57.1%
same,"Gr≧3 on-treatment white blood cell count decreased, patients",[2]; [5],57.1%
same,death related to study drug,[2]; Cohort 4/20 mg/m^2,"died due to a combination of shock, acute renal failure, tumor lysis syndrome (all related to study drug)"
same,"death due to disease progression, patients","[2]; all cohorts, 21/43 patients",48.8%
same,patients who died by the cut-off date,"[2]; all cohorts, 23 of 43 patients",53.5%
same,"study drug-related TEAE diarrhea, patients","[2]; human, in vivo",41.7%
same,"study drug-related TEAE fatigue, patients","[2]; human, in vivo",83.3%
same,"study drug-related serious TEAE febrile neutropenia, patients","[2]; human, in vivo",25.0%
same,"study drug-related serious TEAE neutropenia (Gr≧3), patients","[2]; human, in vivo",33.3%
same,maximum administered dose (MAD),"[2]; human, in vivo, 3 weeks",20 mg/m2
same,febrile neutropenia,[2]; in vivo,No patient experienced febrile neutropenia
same,safety profile at the MTD,[2]; patients with mild or moderate hepatic impairment,generally similar to that observed at 25 mg/m^2 in patients with normal hepatic function
same,CL/BSA estimate,"[3]; Cohort 1, normal hepatic function, 90% CI: 8.6-20.8",13.4 L/h/m2
same,CL/BSA estimate,"[3]; Cohort 2, mild hepatic impairment, 90% CI: 17.6-31.4",23.5 L/h/m2
same,CL/BSA geometric mean ratio,"[3]; Cohort 2 versus Cohort 1, 75% increase, 90% CI: 1.04-2.96",1.75
same,mean CL/BSA,"[3]; Cohort 3/10 mg/m^2 (aberrant PK behavior, excluded from statistical analysis)",517 L/h/m2
same,"CL/BSA geometric mean ratio, sensitivity analysis","[3]; Cohort 3 versus Cohort 2, after exclusion of patients with erratic PK profile, 6% decrease, 90% CI: 0.64-1.38",0.94
same,AUClast/dose geometric mean ratio,"[3]; Cohort 3 versus Cohort 2, 14% decrease, 90% CI: 0.50-1.46",0.86
same,CL/BSA geometric mean ratio,"[3]; Cohort 3 versus Cohort 2, 19% increase, 90% CI: 0.74-1.91",1.19
same,"CL/BSA geometric mean ratio, sensitivity analysis","[3]; Cohort 4 versus Cohort 2, after exclusion of patients with erratic PK profile, 39% decrease, 90% CI: 0.36-1.05",0.61
same,AUClast/dose geometric mean ratio,"[3]; Cohort 4 versus Cohort 2, 17% increase, 90% CI: 0.63-2.14",1.17
same,CL/BSA geometric mean ratio,"[3]; Cohort 4 versus Cohort 2, 23% decrease, 90% CI: 0.39-1.53",0.77
same,"mean CL/BSA, Cohort 3/10 mg/m^2 versus other Cohort 3 patients",[3]; higher,approximately 20 fold
same,effect of hepatic impairment on cabazitaxel clearance,[3]; mild or moderate hepatic impairment,no evidence that mild or moderate hepatic impairment results in a substantial decline in cabazitaxel clearance
same,CL/BSA estimate,[3]; moderate hepatic impairment,27.9 L/h/m2
same,mean CL/BSA,"[3]; other Cohort 3 patients, 15 and 20 mg/m2",30.5 L/h/m2
same,CL/BSA estimate,[3]; severe hepatic impairment,18.1 L/h/m2
